Measured values taken from patent US9877962B2, “Piperazinyl derivatives for the treatment of cancer” (priority 2011, dated 2018).
pEC50, pIC50: −log10 of the molar value. Like-named read-outs stand apart in the source and are kept apart here.

Key:
Format in all cases: cell-based, human
[1] = system: HL-60/R10; experiment: Cytotoxicity test (ViaLight Plus cell proliferation) on HL-60/R10; conditions: doxorubicin-resistant line, 72 hours' incubation, cell viability vs 0.5% DMSO control, read-out: EC50 HL60/R10; for pIC50: HL-60, 72 h
From the text: (§1) The effects of the compounds of the invention on the proliferation of cancer cells were studied on different human cancer cell lines of different tissue origin (MCF-7: breast cancer, MCF-7/adr adriamycin-resistant breast cancer, HL-60: acute promyelocytic leukaemia, HL-60/R10: doxorubicin-resistant acute promyelocytic leukaemia, HT29: colon adenocarcinoma, Mia Paca2: pancreatic tumour, Panc-1: pancreatic exocrine tumour, SK-OV-3: cisplatin- and adriamycin resistant ovarian cancer). The cancer cells used for this study were incubated at 37° C. in the presence of one of the compounds of the invention added to the culture medium at different concentrations.
(§2) The cancer cell lines were obtained from ATCC (American Type Culture Collection) for MCF-7, from Hôpital de la Pitié Salpetrière for MCF-7/adr and from Oncodesign (Dijon, France) for HL-60, HL-60/R10, HT29, MiaPaCa2, Panc-1 and SK-OV-3. They were cultured in RPMI 1640 medium containing 2 mM L-Glutamine supplemented with 10% foetal calf serum (Lonza; Verviers, Belgium). All the cell lines were held in culture at 37° C. in a humid atmosphere containing 5% CO2. Cell proliferation was assessed using the ViaLight® Plus Assay Kit (Lonza; Verviers, Belgium) following the manufacturer's instructions. The cells were seeded in 96-well culture plates compatible with luminescence read-off (white plates with transparent bottom) in a proportion of 5 000 to 10 000 cells per well in 100 μl of culture medium. After a pre-incubation time of 24 hours at 37° C., the compounds of the invention dissolved in dimethylsulfoxide (DMSO) were individually added to each well in a proportion of 0.5 μl per well. After 72 hours' incubation at 37° C. in a humid atmosphere containing 5% CO2, 50 μl of lysis buffer were added to each well and 15 minutes later 100 μl of ATP measuring agent were added. The plates were read under a luminometer to evaluate cell viability. The data obtained was processed by computer to obtain the EC50 value i.e. the concentration value of each of the compounds which induces 50% cell viability compared with a control value (0.5% DMSO alone).

[2] = system: MCF-7/adr; experiment: Cytotoxicity test (ViaLight Plus cell proliferation) on MCF-7/adr; conditions: adriamycin-resistant line, 72 hours' incubation, cell viability vs 0.5% DMSO control; for pIC50: Homo sapiens, NCI/ADR-RES, 72 h, read-out: EC50 MCF-7/adr
From the text: as §1, §2

[3] = system: MCF-7; experiment: Cytotoxicity test (ViaLight Plus cell proliferation) on MCF-7; conditions: 72 hours' incubation, cell viability vs 0.5% DMSO control; for pIC50: Homo sapiens, MCF7, 72 h, read-out: EC50 MCF-7
From the text: as §1, §2

[4] = system: HL-60; experiment: Cytotoxicity test (ViaLight Plus cell proliferation) on HL-60; conditions: 72 hours' incubation, cell viability vs 0.5% DMSO control; for pIC50: HL-60, 72 h, read-out: EC50 HL-60
From the text: as §1, §2

Compound: Cc1cc(Oc2ccccc2)ccc1N(C(=O)CCl)C(C(=O)N1CCN[C@H](C(C)C)C1)c1ccc(F)cc1 (single isomer, unassigned) [I-8 dia1]
- pEC50 [1]: 7.27
- pEC50 [2]: 6.83
- pIC50 [3]: 5.76
- pIC50 ([4]; Homo sapiens): 5.69

Compound: Cc1cc(Oc2ccccc2)ccc1N(C(=O)CCl)C(C(=O)N1CCN[C@H](C(C)C)C1)c1ccc(F)cc1 (single isomer, unassigned) [I-8 dia2]
- pEC50 [1]: 6.51
- pEC50 [2]: 6.32
- pEC50 [3]: 5.62
- pEC50 [4]: 5.76

Compound: CC[C@@H]1CN(C(=O)C(c2ccc(F)cc2)N(C(=O)CCl)c2ccc(Oc3ccccc3)cc2)CCN1C(=O)OC(C)(C)C (single isomer, unassigned; dia1) [I-20 dia1]
- pEC50 [1]: 7.10
- pEC50 [2]: 7.14
- pEC50 [3]: 5.80
- pEC50 [4]: 6.71

Compound: C[C@H]1CN(C(=O)C(c2ccc(F)cc2)N(C(=O)CCl)c2ccc(Oc3ccccc3)cc2)CCN1 (single isomer, unassigned; dia1) [I-21 dia1]
- pEC50 [1]: 7.89
- pEC50 [2]: 7.03
- pEC50 [3]: 5.71
- pEC50 [4]: 5.61

Compound: C[C@@H]1CN(C(=O)C(c2ccc(F)cc2)N(C(=O)CCl)c2ccc(Oc3ccccc3)cc2)CCN1 (single isomer, unassigned; dia1) [I-22 dia1]
- pEC50 [1]: 7.77
- pEC50 [2]: 6.88
- pEC50 [3]: 6.24
- pEC50 [4]: 5.70

Compound: Cc1cc(OC(C)C)ccc1N(C(=O)CCl)C(C(=O)N1CCN[C@@H](C(C)C)C1)c1ccc(F)cc1 (single isomer, unassigned; dia1) [I-26 dia1]
- pEC50 [1]: 7.89
- pEC50 [2]: 7.03
- pEC50 [3]: 5.71
- pEC50 [4]: 5.61

Compound: Cc1cc(OC(F)(F)F)ccc1N(C(=O)CCl)C(C(=O)N1CCN[C@@H](C(C)C)C1)c1ccc(F)cc1 (single isomer, unassigned; dia1) [I-27 dia1]
- pEC50 [1]: 7.77
- pEC50 [2]: 6.88
- pEC50 [3]: 6.24
- pEC50 [4]: 5.70

Compound: Cc1cc(Oc2ccccc2)ccc1N(C(=O)CCl)C(C(=O)N1CCN(C(=O)OC(C)(C)C)C(C(=O)NCc2ccccc2)C1)c1cccs1 (single isomer, unassigned; dia1) [I-53 dia1]
- pEC50 [1]: 6.19
- pEC50 [2]: 6.34
- pEC50 [3]: 5.69
- pEC50 [4]: 5.70

Compound: CC[C@H]1CN(C(=O)C(c2ccc(F)cc2)N(C(=O)CCl)c2ccc(Oc3ccccc3)cc2C)CCN1 (single isomer, unassigned; dia2) [I-17 dia2]
- pEC50 [1]: 7.31
- pEC50 [2]: 6.82
- pEC50 [3]: 5.70
- pEC50 [4]: 5.79

Compound: CC[C@@H]1CN(C(=O)C(c2ccc(F)cc2)N(C(=O)CCl)c2ccc(Oc3ccccc3)cc2C)CCN1 (single isomer, unassigned; dia2) [I-18 dia2]
- pEC50 [1]: 7.36
- pEC50 [2]: 6.82
- pEC50 [3]: 6.23
- pEC50 [4]: 6.45

Compound: C[C@H]1CN(C(=O)C(c2ccc(F)cc2)N(C(=O)CCl)c2ccc(Oc3ccccc3)cc2)CCN1 (single isomer, unassigned; dia2) [I-21 dia2]
- pEC50 [1]: 8.10
- pEC50 [2]: 8.00
- pEC50 [3]: 6.06
- pEC50 [4]: 6.20

Compound: C[C@@H]1CN(C(=O)C(c2ccc(F)cc2)N(C(=O)CCl)c2ccc(Oc3ccccc3)cc2)CCN1 (single isomer, unassigned; dia2) [I-22 dia2]
- pEC50 [1]: 7.74
- pEC50 [2]: 7.47
- pEC50 [3]: 6.37
- pEC50 [4]: 5.94

Compound: Cc1cc(OC(C)C)ccc1N(C(=O)CCl)C(C(=O)N1CCN[C@@H](C(C)C)C1)c1ccc(F)cc1 (single isomer, unassigned; dia2) [I-26 dia2]
- pEC50 [1]: 8.10
- pEC50 [2]: 8.00
- pEC50 [3]: 6.06
- pEC50 [4]: 6.20

Compound: Cc1cc(OC(F)(F)F)ccc1N(C(=O)CCl)C(C(=O)N1CCN[C@@H](C(C)C)C1)c1ccc(F)cc1 (single isomer, unassigned; dia2) [I-27 dia2]
- pEC50 [1]: 7.74
- pEC50 [2]: 7.47
- pEC50 [3]: 6.37
- pEC50 [4]: 5.94

Compound: Cc1cc(Oc2ccccc2)ccc1N(C(=O)CCl)C(C(=O)N1CCN(C(=O)OC(C)(C)C)[C@@H](C)C1)c1ccc(F)cc1 (stereo partly shown) [Example I-9]
- pIC50 ([1]; Homo sapiens): 7.00
- pIC50 [2]: 6.97
- pIC50 [3]: 5.60
- pIC50 ([4]; Homo sapiens): 6.11

Compound: Cc1cc(Oc2ccccc2)ccc1N(C(=O)CCl)C(C(=O)N1C[C@@H](C)N(C(=O)OC(C)(C)C)[C@@H](C)C1)c1ccc(F)cc1 (stereo partly shown) [Example I-10]
- pIC50 ([1]; Homo sapiens): 6.88
- pIC50 [2]: 6.82
- pIC50 [3]: 5.60
- pIC50 ([4]; Homo sapiens): 6.19

Compound: Cc1cc(Oc2ccccc2)ccc1N(C(=O)CCl)C(C(=O)N1CCN(C(=O)OC(C)(C)C)[C@H](C)C1)c1ccc(F)cc1 (stereo partly shown) [Example I-11]
- pIC50 ([1]; Homo sapiens): 7.17
- pIC50 [2]: 6.99
- pIC50 [3]: 5.60
- pIC50 ([4]; Homo sapiens): 6.03

Compound: Cc1cc(Oc2ccccc2)ccc1N(C(=O)CCl)C(C(=O)N1CCN[C@@H](C)C1)c1ccc(F)cc1 (stereo partly shown) [Example I-12]
- pIC50 ([1]; Homo sapiens): 7.09
- pEC50 ([1]; Homo sapiens, HL-60): 7.09
- pIC50 [2]: 6.38
- pIC50 [3]: 5.75
- pIC50 ([4]; Homo sapiens): 5.63
- pEC50 ([4]; Homo sapiens, HL-60): 5.63

Compound: Cc1cc(Oc2ccccc2)ccc1N(C(=O)CCl)C(C(=O)N1CCN[C@H](C)C1)c1ccc(F)cc1 (stereo partly shown) [Example I-13]
- pIC50 ([1]; Homo sapiens): 7.06
- pEC50 ([1]; Homo sapiens, HL-60): 7.06
- pIC50 [2]: 6.27
- pIC50 [3]: 5.60
- pIC50 ([4]; Homo sapiens): 5.70
- pEC50 ([4]; Homo sapiens, HL-60): 5.70

Compound: Cc1cc(Oc2ccccc2)ccc1N(C(=O)CCl)C(C(=O)N1C[C@@H](C)N[C@@H](C)C1)c1ccc(F)cc1 (stereo partly shown) [Example I-14]
- pIC50 ([1]; Homo sapiens): 7.02
- pEC50 ([1]; Homo sapiens, HL-60): 7.02
- pIC50 [2]: 6.63
- pIC50 [3]: 5.60
- pIC50 ([4]; Homo sapiens): 5.73
- pEC50 ([4]; Homo sapiens, HL-60): 5.73

Compound: CC1CN(C(=O)C(c2cccs2)N(C(=O)CCl)c2cccc(C(F)(F)F)c2)CC(C)N1C(=O)OCc1ccccc1 (stereo not shown) [Example I-29]
- pIC50 ([1]; Homo sapiens): 7.42
- pIC50 [2]: 7.27
- pIC50 [3]: 5.99
- pIC50 ([4]; Homo sapiens): 6.03

Compound: CC1CN(C(=O)C(c2cccs2)N(C(=O)CCl)c2ccc(Oc3ccccc3)cc2)CC(C)N1 (stereo not shown) [Example I-30]
- pIC50 ([1]; Homo sapiens): 8.00
- pIC50 [2]: 7.36
- pIC50 [3]: 6.00
- pIC50 ([4]; Homo sapiens): 6.69

Compound: CC1CN(C(=O)C(c2cccs2)N(C(=O)CCl)c2ccc(Oc3ccccc3)cc2)CC(C)N1C(=O)OCc1ccccc1 (stereo not shown) [Example I-31]
- pIC50 ([1]; Homo sapiens): 7.19
- pIC50 [2]: 7.05
- pIC50 [3]: 5.60
- pIC50 ([4]; Homo sapiens): 6.12

Compound: CC1CN(C(=O)C(c2cccs2)N(C(=O)CCl)c2ccc(Oc3ccccc3)cc2)CC(C)N1C(=O)OC(C)(C)C (stereo not shown) [Example I-32]
- pIC50 ([1]; Homo sapiens): 7.11
- pIC50 [2]: 7.24
- pIC50 [3]: 5.60
- pIC50 ([4]; Homo sapiens): 6.76

Compound: O=C(C(c1cccs1)N(C(=O)CCl)c1ccc(Oc2ccccc2)cc1)N1CCN2CCC[C@H]2C1 (stereo partly shown) [Example I-34]
- pIC50 ([1]; Homo sapiens): 7.52
- pIC50 [2]: 7.00
- pIC50 [3]: 5.75
- pIC50 ([4]; Homo sapiens): 5.95

Compound: O=C(C(c1cccs1)N(C(=O)CCl)c1ccc(Oc2ccccc2)cc1)N1CC2CC1CN2 (stereo not shown) [Example I-35]
- pIC50 ([1]; Homo sapiens): 6.60
- pIC50 [2]: 6.06
- pIC50 [3]: 6.20
- pIC50 ([4]; Homo sapiens): 6.52

Compound: C[C@@H]1CN(C(=O)C(c2cccs2)N(C(=O)CCl)c2ccc(Oc3ccccc3)cc2)CCN1C(=O)OCc1ccccc1 (stereo partly shown) [Example I-36]
- pIC50 ([1]; Homo sapiens): 7.55
- pIC50 [2]: 7.62
- pIC50 [3]: 5.60
- pIC50 ([4]; Homo sapiens): 6.43

Compound: Cc1cc(Oc2ccccc2)ccc1N(C(=O)CCl)C(C(=O)N1CCN(C(=O)OCc2ccccc2)[C@H](C)C1)c1cccs1 (stereo partly shown) [Example I-37]
- pIC50 ([1]; Homo sapiens): 6.81
- pIC50 [2]: 6.81
- pIC50 [3]: 5.60
- pIC50 ([4]; Homo sapiens): 6.01

Compound: Cc1c(N(C(=O)CCl)C(C(=O)N2C[C@@H](C)N[C@@H](C)C2)c2cccs2)cccc1C(F)(F)F (stereo partly shown) [Example I-38]
- pIC50 ([1]; Homo sapiens): 6.72
- pIC50 [2]: 6.07
- pIC50 [3]: 5.60
- pIC50 ([4]; Homo sapiens): 5.60

Compound: CC[C@H]1CN(C(=O)C(c2cccs2)N(C(=O)CCl)c2ccc(Oc3ccccc3)cc2)CCN1 (stereo partly shown) [Example I-39]
- pIC50 ([1]; Homo sapiens): 8.05
- pIC50 [2]: 7.28
- pIC50 [3]: 6.11
- pIC50 ([4]; Homo sapiens): 5.74

Compound: tert-butyl ester of 4-[2-[(2-chloro-acetyl)-(4-phenoxy-phenyl)-amino]-2-(4-fluoro-phenyl)-acetyl]-(S)-2-isopropyl-piperazine-1-carboxylic acid [I-1 dia2]
- pEC50 [1]: 7.64
- pEC50 [2]: 7.41
- pEC50 [3]: 5.88
- pEC50 [4]: 6.08
